From patent publication US9597407B2, “Targeted antimicrobial moieties” (C3 Jian, Inc., priority 2009, dated 2017) come the findings set out here.

One test deals with bacteria. The test is described as follows: Binding of targeting peptides to microorganisms (Table 3). Particulars: peptide binding in aqueous buffers that varied depending on peptide solubility; preferably 1x PBS.
A further test deals with microorganisms. The test can be described thus: Morphology, biofilm and growth disruption by peptides (Table 5). In kind it is cell-based. More on the design: key: A: Peptide aggregates; B: Less hyphal formation; Clumps; Diffuse clumps and small polyps; F: Diffuse growth; H: Thin; I: Growth inhibition; Microcolony formation; Rippled; Small polyps; Thick; W: Halo formation on top, microlonies on bottom. An excerpt:
In certain embodiments peptides that induce alterations in phenotype or other biological activities can also be used as antimicrobial effector moieties.

For the substance “PF-667 (chain 1 PAHQRLRIDQRLVADRDMVQDYES; chain 2 PAHQRLRIDQRLVADRDMVQDYES; Peptide with targeting and/or antimicrobial activity)”, the “Target(s) (microorganism bound by the targeting peptide)” value with bacteria is “Mycobacteria spp”. Further, the “Organism, effect (morphology, biofilm and growth disruption)” value was “E. faecalis (R)” in the test with microorganisms (E. faecalis), “MRSA (R)” in the test on microorganisms (MRSA), “S. epidermidis (R)” in the test with microorganisms (S. epidermidis) and “S. pneumoniae (R)” in the test with microorganisms (S. pneumoniae).
Turning to “PF-668 (chain 1 TNAESMALAFRGRVHMSVNIAGLT; chain 2 TNAESMALAFRGRVHMSVNIAGLT; Peptide with targeting and/or antimicrobial activity)”, the “Target(s) (microorganism bound by the targeting peptide)” value with bacteria is recorded as “Mycobacteria spp”. Moreover, the “Organism, effect (morphology, biofilm and growth disruption)” value in the test on microorganisms (B. subtilis) is recorded as “B. subtilis (A)”; in the test on microorganisms (C. albicans) it was “C. albicans (A)”; in the test on microorganisms (C. jeikeium) it was “C. jeikeium (D)”; in the test on microorganisms (E. faecalis), “E. faecalis (D)”; in the test on microorganisms (MRSA) it was “MRSA (R)”; with microorganisms (S. epidermidis), “S. epidermidis (M)”. In addition, the “Organism, effect (morphology, biofilm and growth disruption)” value in the test with microorganisms (S. pneumoniae) is “S. pneumoniae (M)”.
As to “PF-675 (chain 1 EIIPISPTRRCEMHTMSSAEYRGL; chain 2 EIIPISPTRRCEMHTMSSAEYRGL; Peptide with targeting and/or antimicrobial activity)”, in the test on bacteria, the “Target(s) (microorganism bound by the targeting peptide)” value was “Mycobacteria spp”. The entries for the “Organism, effect (morphology, biofilm and growth disruption)” value with microorganisms (E. faecalis) and in the test with microorganisms (S. pneumoniae) were “E. faecalis (R)” and “S. pneumoniae (C)”, respectively.
Consider “PF-677 (chain 1 TCRGAGMH; chain 2 TCRGAGMH; Peptide with targeting and/or antimicrobial activity)”, for which the “Target(s) (microorganism bound by the targeting peptide)” value with bacteria is “Mycobacteria spp”. In addition, the “Organism, effect (morphology, biofilm and growth disruption)” value was “E. faecalis (R)” in the test with microorganisms (E. faecalis), “MRSA (D)” in the test on microorganisms (MRSA), “S. epidermidis (R)” in the test on microorganisms (S. epidermidis) and “S. pneumoniae (D)” in the test with microorganisms (S. pneumoniae).
Turning to “PF-680 (chain 1 ADPHPTTGI; chain 2 ADPHPTTGI; Peptide with targeting and/or antimicrobial activity)”, in the test with bacteria, the “Target(s) (microorganism bound by the targeting peptide)” value is given as “Mycobacteria spp”. In the test with microorganisms (MRSA), the “Organism, effect (morphology, biofilm and growth disruption)” value was “MRSA (R)”.
Turning to “PF-681 (chain 1 TALTTVGVSGARLITYCVGVEDI; chain 2 TALTTVGVSGARLITYCVGVEDI; Peptide with targeting and/or antimicrobial activity)”, the “Target(s) (microorganism bound by the targeting peptide)” value with bacteria is listed as “M. smegmatis”. Besides, the “Organism, effect (morphology, biofilm and growth disruption)” value in the test on microorganisms (C. jeikeium) is reported as “C. jeikeium (R)”; in the test on microorganisms (E. faecalis), “E. faecalis (R)”; with microorganisms (MRSA), “MRSA (M)”; in the test on microorganisms (S. epidermidis) it was “S. epidermidis (M)”; in the test with microorganisms (S. pneumoniae), “S. pneumoniae (M)”.
With “PF-682 (chain 1 RRGKSEQGLSRR; chain 2 RRGKSEQGLSRR; Peptide with targeting and/or antimicrobial activity)”, the “Target(s) (microorganism bound by the targeting peptide)” value in the test with bacteria was “Mycobacteria spp”. Moreover, in the test with microorganisms (S. pneumoniae), the “Organism, effect (morphology, biofilm and growth disruption)” value was “S. pneumoniae (A)”.
“PF-683 (chain 1 LWPVA; chain 2 LWPVA; Peptide with targeting and/or antimicrobial activity)”: the “Target(s) (microorganism bound by the targeting peptide)” value in the test with bacteria is recorded as “Mycobacteria spp”. Besides, the “Organism, effect (morphology, biofilm and growth disruption)” value in the test on microorganisms (MRSA) was “MRSA (R)”; in the test on microorganisms (S. epidermidis), “S. epidermidis (R)”; in the test on microorganisms (S. pneumoniae), “S. pneumoniae (H)”.
Turning to “PF-684 (chain 1 RKLSLASGFALWRRSLV; chain 2 RKLSLASGFALWRRSLV; Peptide with targeting and/or antimicrobial activity)”, the “Target(s) (microorganism bound by the targeting peptide)” value in the test on bacteria is reported as “Mycobacteria spp”. Besides, the “Organism, effect (morphology, biofilm and growth disruption)” value in the test with microorganisms (C. albicans) was “C. albicans (B)”; in the test with microorganisms (E. faecalis), “E. faecalis (A)”; in the test with microorganisms (S. pneumoniae), “S. pneumoniae (C)”.
As to “PF-685 (chain 1 PTLWLACL; chain 2 PTLWLACL; Peptide with targeting and/or antimicrobial activity)”, the “Target(s) (microorganism bound by the targeting peptide)” value in the test with bacteria is on record as “Mycobacteria spp”. For the same substance, the “Organism, effect (morphology, biofilm and growth disruption)” value in the test with microorganisms (C. jeikeium) is reported as “C. jeikeium (R)”; with microorganisms (E. faecalis), “E. faecalis (R)”; in the test with microorganisms (MRSA) it was “MRSA (M)”; in the test on microorganisms (S. epidermidis), “S. epidermidis (M)”; with microorganisms (S. pneumoniae), “S. pneumoniae (M)”.
Turning to “PF-686 (chain 1 LAVLMGYIGYRGWSGKRHINRQ; chain 2 LAVLMGYIGYRGWSGKRHINRQ; Peptide with targeting and/or antimicrobial activity)”, the “Target(s) (microorganism bound by the targeting peptide)” value in the test with bacteria was “M. smegmatis”. Besides, the “Organism, effect (morphology, biofilm and growth disruption)” value with microorganisms (B. subtilis) is given as “B. subtilis (I)”; with microorganisms (C. albicans) it was “C. albicans (B)”; in the test on microorganisms (E. faecalis) it was “E. faecalis (R)”; in the test on microorganisms (MRSA) it was “MRSA (M)”; in the test on microorganisms (S. epidermidis) it was “S. epidermidis (H)”; in the test with microorganisms (S. pneumoniae) it was “S. pneumoniae (A)”.
“PF-687 (chain 1 AKRVLSLAVAPHRRQPVQGT; chain 2 AKRVLSLAVAPHRRQPVQGT; Peptide with targeting and/or antimicrobial activity)”: in the test on bacteria, the “Target(s) (microorganism bound by the targeting peptide)” value is given as “Mycobacteria spp”. The “Organism, effect (morphology, biofilm and growth disruption)” value in the test on microorganisms (S. pneumoniae) is “S. pneumoniae (A)”.
Consider “PF-688 (chain 1 ARNHAVIPAG; chain 2 ARNHAVIPAG; Peptide with targeting and/or antimicrobial activity)”, for which the “Target(s) (microorganism bound by the targeting peptide)” value in the test on bacteria was “Mycobacteria spp”. The “Organism, effect (morphology, biofilm and growth disruption)” value with microorganisms (S. pneumoniae) is “S. pneumoniae (A)”.
Consider “PF-690 (chain 1 MIPLAGDPVSSHRTVEFGVLGTYLVSGGSL; chain 2 MIPLAGDPVSSHRTVEFGVLGTYLVSGGSL; Peptide with targeting and/or antimicrobial activity)”, for which the “Target(s) (microorganism bound by the targeting peptide)” value with bacteria was “Mycobacteria spp”. Further, the “Organism, effect (morphology, biofilm and growth disruption)” value in the test with microorganisms (E. faecalis) is listed as “E. faecalis (R)”; with microorganisms (MRSA), “MRSA (R)”; with microorganisms (S. epidermidis), “S. epidermidis (R)”; in the test on microorganisms (S. pneumoniae), “S. pneumoniae (M)”.
Turning to “PF-691 (chain 1 HRTVEFGVLGTYLVSGGSL; chain 2 HRTVEFGVLGTYLVSGGSL; Peptide with targeting and/or antimicrobial activity)”, the “Target(s) (microorganism bound by the targeting peptide)” value in the test on bacteria was “Mycobacteria spp”. Further, the “Organism, effect (morphology, biofilm and growth disruption)” value in the test with microorganisms (S. pneumoniae) is “S. pneumoniae (R)”.
Take “PF-692 (chain 1 GVAREDPLEPDPLAPIIDDSR; chain 2 GVAREDPLEPDPLAPIIDDSR; Peptide with targeting and/or antimicrobial activity)”: the “Target(s) (microorganism bound by the targeting peptide)” value in the test on bacteria was “Mycobacteria spp”. Moreover, in the test with microorganisms (MRSA), the “Organism, effect (morphology, biofilm and growth disruption)” value was “MRSA (R)”.
Turning to “PF-693 (chain 1 PDPAR; chain 2 PDPAR; Peptide with targeting and/or antimicrobial activity)”, the “Target(s) (microorganism bound by the targeting peptide)” value in the test on bacteria was “Mycobacteria spp”. In the test on microorganisms (S. pneumoniae), the “Organism, effect (morphology, biofilm and growth disruption)” value is “S. pneumoniae (A)”.
In the case of “PF-694 (chain 1 DLIRPLYSMSAPSVA; chain 2 DLIRPLYSMSAPSVA; Peptide with targeting and/or antimicrobial activity)”, the “Target(s) (microorganism bound by the targeting peptide)” value in the test with bacteria is reported as “Mycobacteria spp”. The “Organism, effect (morphology, biofilm and growth disruption)” value is “MRSA (R)” in the test on microorganisms (MRSA) and “S. pneumoniae (A)” in the test on microorganisms (S. pneumoniae).
Take “PF-695 (chain 1 ALSVMLGNIPLVVPNANQL; chain 2 ALSVMLGNIPLVVPNANQL; Peptide with targeting and/or antimicrobial activity)”: the “Target(s) (microorganism bound by the targeting peptide)” value with bacteria is listed as “Mycobacteria spp”. The “Organism, effect (morphology, biofilm and growth disruption)” value is reported as “E. faecalis (R)” in the test with microorganisms (E. faecalis), “MRSA (R)” in the test on microorganisms (MRSA) and “S. pneumoniae (C)” in the test with microorganisms (S. pneumoniae).
“PF-696 (chain 1 IRSGISAAYARPLR; chain 2 IRSGISAAYARPLR; Peptide with targeting and/or antimicrobial activity)”: the “Target(s) (microorganism bound by the targeting peptide)” value with bacteria is “Mycobacteria spp”. In addition, in the test on microorganisms (S. pneumoniae), the “Organism, effect (morphology, biofilm and growth disruption)” value was “S. pneumoniae (H)”.
Regarding “PF-697 (chain 1 RADARAK; chain 2 RADARAK; Peptide with targeting and/or antimicrobial activity)”, the “Target(s) (microorganism bound by the targeting peptide)” value with bacteria was “Mycobacteria spp”. The figures for the “Organism, effect (morphology, biofilm and growth disruption)” value in the test with microorganisms (C. albicans) and in the test on microorganisms (S. pneumoniae) were “C. albicans (H)” and “S. pneumoniae (H)”, respectively.
For “PF-698 (chain 1 SSGRAGVKCRRPTGR; chain 2 SSGRAGVKCRRPTGR; Peptide with targeting and/or antimicrobial activity)”, the “Target(s) (microorganism bound by the targeting peptide)” value in the test on bacteria is reported as “Mycobacteria spp”. Besides, the “Organism, effect (morphology, biofilm and growth disruption)” value in the test with microorganisms (C. albicans) is listed as “C. albicans (H)”; in the test with microorganisms (E. faecalis) it was “E. faecalis (A)”; with microorganisms (S. pneumoniae), “S. pneumoniae (A)”.
